Data on 24 compounds can be found in patent publication US10251892B2, “Bicyclic heterocycles as FGFR4 inhibitors” (Incyte Corporation, priority 2015, dated 2019).

Each structure is given as a SMILES string.

The target in this assay is FGFR3 enzyme (Homo sapiens (Human), UniProt P22607). Kind of assay: FGFR Enzymatic Assay (peptide phosphorylation, FRET), FGFR3. The class given is biochemical. Particulars: IC50 ratio showing FGFR3 selectivity; pre-incubated for 4 hours. As for the experimental part: The inhibitor potency of the exemplified compounds was measured in an enzyme assay that measures peptide phosphorylation using FRET measurements to detect product formation. Inhibitors were serially diluted in DMSO and a volume of 0.5 μL was transferred to the wells of a 384-well plate.
Chain of FGFR3 enzyme (P22607 23-806): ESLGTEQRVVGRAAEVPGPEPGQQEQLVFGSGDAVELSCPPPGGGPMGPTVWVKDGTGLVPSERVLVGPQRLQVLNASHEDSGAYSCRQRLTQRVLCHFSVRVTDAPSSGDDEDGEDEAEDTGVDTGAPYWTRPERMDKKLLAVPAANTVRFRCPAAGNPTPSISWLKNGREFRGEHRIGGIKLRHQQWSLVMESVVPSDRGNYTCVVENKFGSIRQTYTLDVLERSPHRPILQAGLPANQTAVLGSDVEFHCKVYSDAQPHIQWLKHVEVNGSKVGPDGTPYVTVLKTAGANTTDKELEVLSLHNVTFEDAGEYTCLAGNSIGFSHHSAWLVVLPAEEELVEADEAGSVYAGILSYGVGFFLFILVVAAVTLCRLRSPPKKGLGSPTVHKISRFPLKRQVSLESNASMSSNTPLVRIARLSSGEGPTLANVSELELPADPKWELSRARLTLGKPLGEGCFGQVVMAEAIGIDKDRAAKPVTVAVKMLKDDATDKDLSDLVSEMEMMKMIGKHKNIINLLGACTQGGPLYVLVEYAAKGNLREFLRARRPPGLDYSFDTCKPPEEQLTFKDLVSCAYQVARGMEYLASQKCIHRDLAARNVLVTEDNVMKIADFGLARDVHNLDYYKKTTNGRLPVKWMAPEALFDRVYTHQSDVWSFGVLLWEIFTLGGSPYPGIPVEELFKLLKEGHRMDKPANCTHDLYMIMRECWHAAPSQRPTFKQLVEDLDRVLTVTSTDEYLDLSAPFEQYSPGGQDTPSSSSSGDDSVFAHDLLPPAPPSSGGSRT
GraphPad prism3 was used to analyze the data.
Turning to `CCN1C(=O)N(c2c(F)c(OC)cc(OC)c2F)Cc2cnc(-c3ccc(C(C)(C)C#N)nc3)cc21` [Example 26, 2-(5-(3-(2,6-difluoro-3,5-dimethoxyphenyl)-1-ethyl-2-oxo-1,2,3,4-tetrahydropyrido[4,3-d]pyrimidin-7-yl)pyridin-2-yl)-2-methylpropanenitrile], the FGFR1/FGFR3 is over 5 and the FGFR4/FGFR3 is listed as over 5.

Consider `COc1cc(OC)c(F)c(N2Cc3cnc(-c4cn(C)nc4C)cc3N(c3cccc(F)c3)C2=O)c1F` [Example 99, 3-(2,6-difluoro-3,5-dimethoxyphenyl)-7-(1,3-dimethyl-1H-pyrazol-4-yl)-1-(3-fluorophenyl)-3,4-dihydropyrido[4,3-d]pyrimidin-2(1H)-one], for which the FGFR1/FGFR3 was over 5 and the FGFR4/FGFR3 was over 5.

`COc1cc(OC)c(F)c(N2Cc3cnc(-c4cn(C)nc4C)cc3N(CC3CC3)C2=O)c1F` [Example 29, 1-(cyclopropylmethyl)-3-(2,6-difluoro-3,5-dimethoxyphenyl)-7-(1,3-dimethyl-1H-pyrazol-4-yl)-3,4-dihydropyrido[4,3-d]pyrimidin-2(1H)-one]: the FGFR1/FGFR3 is on record as over 1 and the FGFR4/FGFR3 was over 5.

`COc1cc(OC)c(F)c(N2Cc3cnc(-c4cnn(CC5CN(S(C)(=O)=O)C5)c4)cc3C3(CC3)C2=O)c1F` [Example 166, 2′-(2,6-difluoro-3,5-dimethoxyphenyl)-6′-(1-((1-(methylsulfonyl)azetidin-3-yl)methyl)-1H-pyrazol-4-yl)-1′H-spiro[cyclopropane-1,4′-[2,7]naphthyridin]-3′(2′H)-one]: the FGFR1/FGFR3 is on record as over 3 and the FGFR4/FGFR3 is given as over 3.

For `COc1cc(OC)c(F)c(N2Cc3cnc(-c4cnn(C)c4)cc3C3(CC3)C2=O)c1F` [Example 186, 2′-(2,6-difluoro-3,5-dimethoxyphenyl)-6′-(1-methyl-H-pyrazol-4-yl)-1′,2′-dihydro-3′H-spiro[cyclopropane-1,4′-[2,7]naphthyridin]-3′-one], the FGFR1/FGFR3 is reported as over 5 and the FGFR4/FGFR3 is over 5.

As for `COc1cc(OC)c(F)c(N2Cc3cnc(-c4cnn(CCCN5CCOCC5)c4)cc3C3(CC3)C2=O)c1F` [Example 151, 2′-(2,6-difluoro-3,5-dimethoxyphenyl)-6′-(1-(3-morpholinopropyl)-1H-pyrazol-4-yl)-1′H-spiro[cyclopropane-1,4′-[2,7]naphthyridin]-3′(2′H)-one], the FGFR1/FGFR3 is reported as over 5 and the FGFR4/FGFR3 is over 5.

For `CCN1C(=O)N(c2c(F)c(OC)cc(OC)c2F)Cc2cnc(-c3ccc(C4(C#N)CCC4)nc3)cc21` [Example 27, 1-(5-(3-(2,6-difluoro-3,5-dimethoxyphenyl)-1-ethyl-2-oxo-1,2,3,4-tetrahydropyrido[4,3-d]pyrimidin-7-yl)pyridin-2-yl)cyclobutanecarbonitrile], the FGFR1/FGFR3 is over 10 and the FGFR4/FGFR3 was over 10.

Regarding `CCCN1C(=O)N(c2c(F)c(OC)cc(OC)c2F)Cc2cnc(-c3cn(C)nc3C)cc21` [Example 30, 3-(2,6-difluoro-3,5-dimethoxyphenyl)-7-(1,3-dimethyl-1H-pyrazol-4-yl)-1-propyl-3,4-dihydropyrido[4,3-d]pyrimidin-2(1H)-one], the FGFR1/FGFR3 was over 1 and the FGFR4/FGFR3 is given as over 5.

For `CCc1nnc(CN2C(=O)N(c3c(F)c(OC)cc(OC)c3F)Cc3cnc(-c4cn(C)nc4C)cc32)o1` [Example 67, 3-(2,6-difluoro-3,5-dimethoxyphenyl)-7-(1,3-dimethyl-1H-pyrazol-4-yl)-1-((5-ethyl-1,3,4-oxadiazol-2-yl)methyl)-3,4-dihydropyrido[4,3-d]pyrimidin-2(1H)-one], the FGFR1/FGFR3 is given as over 5 and the FGFR4/FGFR3 is over 10.

As for `CCN1C(=O)N(c2c(F)c(OC)cc(OC)c2F)Cc2cnc(-c3cnn(C)c3)cc21` [Example 169, 3-(2,6-difluoro-3,5-dimethoxyphenyl)-1-ethyl-7-(1-methyl-1H-pyrazol-4-yl)-3,4-dihydropyrido[4,3-d]pyrimidin-2(1H)-one], the FGFR1/FGFR3 is over 3 and the FGFR4/FGFR3 is reported as over 5.

Take `CCn1cc(-c2cc3c(cn2)CN(c2c(F)c(OC)cc(OC)c2F)C(=O)C32CC2)c(C)n1` [Example 158, 2′-(2,6-difluoro-3,5-dimethoxyphenyl)-6′-(1-ethyl-3-methyl-1H-pyrazol-4-yl)-1′H-spiro[cyclopropane-1,4′-[2,7]naphthyridin]-3′(2′H)-one]: the FGFR1/FGFR3 was over 5 and the FGFR4/FGFR3 is reported as over 3.

For `COc1cc(OC)c(F)c(N2Cc3cnc(-c4cn(C)nc4C)cc3N(c3cn[nH]c3)C2=O)c1F` [Example 129, 3-(2,6-difluoro-3,5-dimethoxyphenyl)-7-(1,3-dimethyl-1H-pyrazol-4-yl)-1-(1H-pyrazol-4-yl)-3,4-dihydropyrido[4,3-d]pyrimidin-2(1H)-one], the FGFR1/FGFR3 is recorded as over 5 and the FGFR4/FGFR3 is given as over 10.

As for `COc1ccc(CN2C(=O)N(c3c(F)c(OC)cc(OC)c3F)Cc3cnc(-c4cn(C)nc4C)cc32)cn1` [Example 59, 3-(2,6-difluoro-3,5-dimethoxyphenyl)-7-(1,3-dimethyl-1H-pyrazol-4-yl)-1-((6-methoxypyridin-3-yl)methyl)-3,4-dihydropyrido[4,3-d]pyrimidin-2(1H)-one], the FGFR1/FGFR3 is on record as over 10 and the FGFR4/FGFR3 was over 10.

As for `COC(=O)N1CCC(N2C(=O)N(c3c(F)c(OC)cc(OC)c3F)Cc3cnc(-c4cn(C)nc4C)cc32)CC1` [Example 122, Methyl 4-(3-(2,6-difluoro-3,5-dimethoxyphenyl)-7-(1,3-dimethyl-1H-pyrazol-4-yl)-2-oxo-3,4-dihydropyrido[4,3-d]pyrimidin-1(2H)-yl)piperidine-1-carboxylate], the FGFR1/FGFR3 is given as over 5 and the FGFR4/FGFR3 was over 5.

Turning to `COc1cc(OC)c(F)c(N2Cc3cnc(-c4cn(C)nc4C)cc3N(c3ccc(-n4cccn4)cc3)C2=O)c1F` [Example 77, 1-(4-(1H-pyrazol-1-yl)phenyl)-3-(2,6-difluoro-3,5-dimethoxyphenyl)-7-(1,3-dimethyl-1H-pyrazol-4-yl)-3,4-dihydropyrido[4,3-d]pyrimidin-2(1H)-one], the FGFR1/FGFR3 is over 5 and the FGFR4/FGFR3 was over 10.

As to `COc1cc(OC)c(F)c(N2Cc3cnc(-c4cn(C)nc4C)cc3N(c3ccc4ccncc4c3)C2=O)c1F` [Example 63, 3-(2,6-difluoro-3,5-dimethoxyphenyl)-7-(1,3-dimethyl-1H-pyrazol-4-yl)-1-(isoquinolin-7-yl)-3,4-dihydropyrido[4,3-d]pyrimidin-2(1H)-one], the FGFR1/FGFR3 is on record as over 10 and the FGFR4/FGFR3 is reported as over 5.

Turning to `COC(=O)Nc1ccc(N2C(=O)N(c3c(F)c(OC)cc(OC)c3F)Cc3cnc(-c4cn(C)nc4C)cc32)cc1` [Example 123, Methyl 4-(3-(2,6-difluoro-3,5-dimethoxyphenyl)-7-(1,3-dimethyl-1H-pyrazol-4-yl)-2-oxo-3,4-dihydropyrido[4,3-d]pyrimidin-1(2H)-yl)phenylcarbamate], the FGFR1/FGFR3 was over 5 and the FGFR4/FGFR3 is recorded as over 3.

Turning to `COc1cc(OC)c(F)c(N2Cc3cnc(-c4cnn(CC5CCCS(=O)(=O)N5)c4)cc3C3(CC3)C2=O)c1F` (stereo not drawn) [Example 162, 2′-(2,6-difluoro-3,5-dimethoxyphenyl)-6′-{1-[(1,1-dioxido-1,2-thiazinan-3-yl)methyl]-1H-pyrazol-4-yl}-1′H-spiro[cyclopropane-1,4′-[2,7]naphthyridin]-3′(2′H)-one], the FGFR1/FGFR3 was over 5 and the FGFR4/FGFR3 is over 1.

As for `CCN1C(=O)N(c2c(F)c(OC)cc(OC)c2F)Cc2cnc(-c3ccc(N4CCOCC4)nc3)cc21` [Example 182, 3-(2,6-difluoro-3,5-dimethoxyphenyl)-1-ethyl-7-(6-morpholinopyridin-3-yl)-3,4-dihydropyrido[4,3-d]pyrimidin-2(1H)-one], the FGFR1/FGFR3 is on record as over 5 and the FGFR4/FGFR3 is over 5.

As to `COc1cc(OC)c(F)c(N2Cc3cnc(-c4cn(C)nc4C)cc3N(c3ccc4[nH]ncc4c3)C2=O)c1F` [Example 134, 3-(2,6-difluoro-3,5-dimethoxyphenyl)-7-(1,3-dimethyl-1H-pyrazol-4-yl)-1-(1H-indazol-5-yl)-3,4-dihydropyrido[4,3-d]pyrimidin-2(1H)-one], the FGFR1/FGFR3 is over 3 and the FGFR4/FGFR3 was over 5.

With `COc1cc(OC)c(F)c(N2Cc3cnc(-c4cn(C)nc4C)cc3N(c3cnccn3)C2=O)c1F` [Example 70, 3-(2,6-difluoro-3,5-dimethoxyphenyl)-7-(1,3-dimethyl-1H-pyrazol-4-yl)-1-(pyrazin-2-yl)-3,4-dihydropyrido[4,3-d]pyrimidin-2(1H)-one], the FGFR1/FGFR3 is recorded as over 5 and the FGFR4/FGFR3 is listed as over 5.

Take `COc1cc(OC)c(F)c(N2Cc3cnc(-c4ccc(C5(C#N)CCC5)nc4)cc3N(c3cnn(C)c3)C2=O)c1F` [Example 188, 1-{5-[3-(2,6-difluoro-3,5-dimethoxyphenyl)-1-(1-methyl-1H-pyrazol-4-yl)-2-oxo-1,2,3,4-tetrahydropyrido[4,3-d]pyrimidin-7-yl]pyridin-2-yl}cyclobutanecarbonitrile]: the FGFR1/FGFR3 is over 5 and the FGFR4/FGFR3 was over 5.

As for `COc1cc(OC)c(F)c(N2Cc3cnc(-c4cnn(CCN5CCC(OC)C5)c4)cc3C3(CC3)C2=O)c1F` (stereo not drawn) [Example 161, 2′-(2,6-difluoro-3,5-dimethoxyphenyl)-6′-(1-(2-(3-methoxypyrrolidin-1-yl)ethyl)-1H-pyrazol-4-yl)-1′H-spiro[cyclopropane-1,4′-[2,7]naphthyridin]-3′(2′H)-one], the FGFR1/FGFR3 is over 5 and the FGFR4/FGFR3 is over 3.

Consider `COc1cc(OC)c(F)c(N2Cc3cnc(-c4cn(CCCN5CCOCC5)nc4C)cc3C3(CC3)C2=O)c1F` [Example 146, 2′-(2,6-difluoro-3,5-dimethoxyphenyl)-6′-(3-methyl-1-(3-morpholinopropyl)-1H-pyrazol-4-yl)-1′H-spiro[cyclopropane-1,4′-[2,7]naphthyridin]-3′(2′H)-one], for which the FGFR1/FGFR3 is given as over 10 and the FGFR4/FGFR3 is given as over 5.
